Assay results: patent US20250388591A1 (CSPC ZHONGQI PHARMACEUTICAL TECHNOLOGY (SHIJIAZHUANG) CO., …, priority 2022, published 2025)

Key:
[1] = target: T1, MAT2A (Homo sapiens, UniProt P31153); assay: MAT2A enzymatic assay (MAT2A Inhibitor Enzymatic Screening Kit); assay type: biochemical; conditions: MAT2A enzyme, colorimetric detection at 630 nm; read-out: Inhibitory activity against Enzyme (IC50: nM)
T1 construct: purchased BPS Bioscience
Method: The inhibitory effect of the test compounds on the enzymatic activity of MAT2A was determined using MAT2A Inhibitor Enzymatic Screening Kit (BPS Bioscience).
1) Test compounds were dissolved in DMSO and mixed well until the test compounds were completely dissolved. All compounds were diluted with DMSO to a starting concentration of 2 mM, and diluted at a 3-fold ratio to a total of 10 concentration gradients. Duplicate wells were set. The compounds were added to the reaction system at a ratio of 1:100 (20 μM of the maximum final concentration) during detection. 100× positive control (1 mM AGI-24512) and 100× negative control (100% DMSO) were prepared.
2) 200 nL of each of the diluted compounds were transferred to each well of the reaction plate (Corning 3702) using an Echo 550 pipetting system, and the reaction plate was sealed with a sealing film, and centrifuged at 1000 g for 1 minute. The final concentration of DMSO was 1%.
3) Preparation of 1×MAT2A enzyme reaction buffer: 1× volume of 5×MAT2A enzyme reaction buffer was mixed well with 4× volumes of water.
4) 2×MAT2A enzyme solution was prepared with 1×MAT2A enzyme reaction buffer.
5) A 10 μL of 2×MAT2A enzyme solution was added to each well of the 384-reaction plate (Corning 3702), and the plate was sealed with a sealing film.
6) The plate was centrifuged at 1000 g for 60 seconds and incubated at room temperature for 30 minutes.
7) A mixture of 2×L-Methionine and ATP was prepared with 1×MAT2A enzyme reaction buffer.
8) 10 μL of the mixture of 2×L-Methionine and ATP was added to each well of the 384-reaction plate (Corning 3702), and the plate was sealed with a sealing film. The total reaction system was 20 μL.
9) The plate was centrifuged at 1000 g for 60 seconds and incubated at room temperature for 60 minutes.
10) The assay buffer Colorimetric Detection Rebgent was prepared.
11) 20 μL of the assay buffer was added to each well. The plate was centrifuged at 1000 g for 30 seconds and reacted at room temperature for 15 minutes.
12) Fluorescence signal at 630 nm was detected by a multifunctional microplate reader (PerkinElmer, Nivo).

[2] = tested on: HCT116-MTAP−/− cells; assay: Cell proliferation inhibition, HCT116 MTAP-/- (Cell Titer Glo, 5 days); assay type: cell-based; conditions: Homo sapiens, HCT-116, 120 h, 5 days treatment, read-out: HCT116 MTAP−/− cell proliferation inhibitory activity IC50:
Method: (§1) The specific operation procedures were as follows. Tumor cells were treated with test compounds for 5 days, and the effect of the test compounds on the proliferation of tumor cells was evaluated. HCT116-MTAP^−/− and wild-type control HCT116-WT (colorectal cancer cells) cells were seeded in a 384-well plate at a density of 600 cells/well, and at the same time, different concentrations of the test compounds (starting from 20 μM, 10 concentration gradients) were added. The cells were incubated at 37° C., 5% CO2, and saturated humidity for 5 days.
(§2) Cell proliferation was detected using an ATP-based Cell Proliferation Assay Kit (Cell Titer Glo, Promega Corporation). Cells were equilibrated at room temperature for 30 minutes and then treated with Cell Titer Glo reagent. The plate was then covered with aluminum foil and shaken for 15 minutes to allow mixing well and lysis. Chemiluminescence detection was performed using a multifunctional microplate reader (Envision 2105, PerkinElmer). A blank well (blank, cell-free) and a DMSO control well were set.
(§3) The inhibition rate (IR) of the test compounds was calculated using the following formula: […]
(§4) GraphPad Prism was used for graphing, data analysis and IC50 calculations.

[3] = tested on: HCT116-WT cells; assay: Cell proliferation inhibition, HCT116 wild-type (Cell Titer Glo, 5 days); assay type: cell-based; conditions: Homo sapiens, HCT-116, 120 h, 5 days treatment, maximum inhibition rate <50% expressed as IC50 > maximum initial concentration, read-out: HCT116 MTAP+/+ cell proliferation inhibitory activity IC50:
Method: as §1, §2, §3, §4

T1 sequence (P31153 whole entry): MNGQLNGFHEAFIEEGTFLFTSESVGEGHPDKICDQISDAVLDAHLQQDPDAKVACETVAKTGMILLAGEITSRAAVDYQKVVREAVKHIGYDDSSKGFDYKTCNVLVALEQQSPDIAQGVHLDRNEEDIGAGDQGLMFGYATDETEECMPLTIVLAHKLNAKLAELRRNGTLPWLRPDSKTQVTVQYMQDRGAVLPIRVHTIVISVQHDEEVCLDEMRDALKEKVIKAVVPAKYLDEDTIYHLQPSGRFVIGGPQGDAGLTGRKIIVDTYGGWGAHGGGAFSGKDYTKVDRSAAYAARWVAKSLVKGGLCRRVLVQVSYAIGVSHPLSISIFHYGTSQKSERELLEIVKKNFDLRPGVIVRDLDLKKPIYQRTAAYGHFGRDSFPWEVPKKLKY

Row | SMILES | IC50 [1] | IC50 [2] | IC50 [3]
1 | Cc1ncccc1-n1c(=O)nc2c3c(cc(Cl)cc31)CN2c1ccc(Cl)cc1 [Compound A39, 7-chloro-4-(4-chlorophenyl)-1-(2-methylpyridin-3-yl)-4,5-dihydropyrrolo[2,3,4-de]quinazolin-2(1H)-one] | ≤ 50 nM | 308 nM | 1350 nM
2 | CN1Cc2cc(Cl)cc3c2c1nc(=O)n3-c1cccnc1Cl (single isomer, unassigned) [Compound A16-P2, 7-chloro-4-methyl-1-(2-chloropyridin-3-yl)-4,5-dihydropyrrolo[2,3,4-de]quinazolin-2(1H)-one] | ≤ 50 nM | – | –
3 | Cc1ncccc1-n1c(=O)nc2c3c(cc(C(F)(F)F)nc31)CCN2C [Compound C1, 4-methyl-1-(2-methylpyridin-3-yl)-8-(trifluoromethyl)-5,6-dihydro-1H-pyrimidino[4,5,6-ij][2,7]naphthyridin-2(4H)-one] | ≤ 50 nM | – | –
4 | CN1Cc2cc(C(F)(F)F)nc3c2c1nc(=O)n3-c1cccnc1Cl [Compound A29] | > 100 nM | – | –
5 | Cc1ncccc1-n1c(=O)nc2c3c(cc(Cl)cc31)CCCN2 [Compound B1, 9-chloro-1-(2-methylpyridin-3-yl)-4,5,6,7-tetrahydroazepino[2,3,4-de]quinazolin-2(1H)-one] | > 100 nM | – | –
6 | Cc1ncccc1-n1c(=O)nc2c3c(cc(Cl)cc31)CN2c1ccc2nn(C)cc2c1 [Compound A38, 7-chloro-4-(2-methyl-2H-indazol-5-yl)-1-(2-methylpyridin-3-yl)-4,5-dihydropyrrolo[2,3,4-de]quinazolin-2(1H)-one] | ≤ 50 nM | 20 nM | > 20000 nM
7 | CN1Cc2cc(Cl)cc3c2c1nc(=O)n3-c1cccnc1Cl [Compound A16, 7-chloro-4-methyl-1-(2-chloropyridin-3-yl)-4,5-dihydropyrrolo[2,3,4-de]quinazolin-2(1H)-one] | ≤ 50 nM | 112 nM | > 20000 nM
8 | Cc1ncccc1-n1c(=O)nc2c3c(cc(Cl)cc31)NCC(O)N2C (stereo not drawn) [Compound B3, 9-chloro-5-hydroxy-4-methyl-1-(2-methylpyridin-3-yl)-4,5,6,7-tetrahydro-[1,4]diazepino[5,6,7-de]quinazolin-2(1H)-one] | 50 to 100 nM | – | –
9 | Cc1ncccc1-n1c(=O)nc2c3c(cc(Cl)cc31)OCCN2 [Compound B2, 9-chloro-1-(2-methylpyridin-3-yl)-5,6-dihydro-1H-[1,4]oxazepino[5,6,7-de]quinazolin-2(4H)-one] | > 100 nM | – | –

Results, then the molecule that gave them:

Row | IC50 [1] | IC50 [2] | IC50 [3] | SMILES
10 | ≤ 50 nM | – | – | Cc1ncccc1-n1c(=O)nc2c3c(cc(Cl)cc31)CN2c1ccccc1 [Compound A3, 7-chloro-4-phenyl-1-(2-methylpyridin-3-yl)-4,5-dihydropyrrolo[2,3,4-de]quinazolin-2(1H)-one]
11 | ≤ 50 nM | 199 nM | > 20000 nM | Cc1ncccc1-n1c(=O)nc2c3c(cc(Cl)cc31)CN2 [Compound A1, 7-chloro-1-(2-methylpyridin-3-yl)-4,5-dihydropyrrolo[2,3,4-de]quinazolin-2(1H)-one]
12 | ≤ 50 nM | 45 nM | > 20000 nM | Cc1ncccc1-n1c(=O)nc2c3c(cc(Cl)cc31)CN2C [Compound A2, 7-chloro-4-methyl-1-(2-methylpyridin-3-yl)-4,5-dihydropyrrolo[2,3,4-de]quinazolin-2(1H)-one]
13 | 50 to 100 nM | – | – | COc1ncccc1-n1c(=O)nc2c3c(cc(Cl)cc31)CN2C [Compound A40, 7-chloro-1-(2-methoxypyridin-3-yl)-4-methyl-4,5-dihydropyrrolo[2,3,4-de]quinazolin-2(1H)-one]
14 | > 100 nM | – | – | Cc1ncccc1-n1c(=O)nc2c3c(cc(C(F)(F)F)nc31)CN2C [Compound A19]
